In patent US9012484B2, “Crystal and pharmaceutical preparation containing the same crystal” (Pola Pharma Inc., priority 2012, dated 2015):
“Also recorded” adds a separate entry of the source. Each block holds one compound with its values, some of them ahead of it.

Legend:
[1] = Comparison of state of dissolution in ethanol between crystals; type: physicochemical; conditions: rank order between crystals
Method: The alcohol content of Crystal 4 obtained by changing the recrystallization condition of Example 1 was measured, and the state of dissolution in ethanol was also compared with those of Crystal of Comparative Example of Example 1 and Crystal 3 to compare the solubility.
The alcohol content of Crystal 5 obtained by changing the recrystallization condition of Example 1 was measured, and the state of dissolution in ethanol was also compared with those of Crystal of Comparative Example of Example 1 and Crystal 2 to compare the solubility.
The alcohol content of Crystal 6 obtained by changing the recrystallization condition of Example 1 was measured, and the state of dissolution in ethanol was also compared with those of Crystal of Comparative Example of Example 1, Crystal 4, and Crystal 3 to compare the solubility.
The alcohol content of Crystal 7 obtained by changing the recrystallization condition of Example 1 was measured, and the state of dissolution in ethanol was also compared with those of Crystal of Comparative Example of Example 1 and Crystal 5 to compare the solubility.

[2] = State of dissolution in ethanol observed with the naked eye; type: physicochemical
Method: The alcohol contents of crystals (Crystals 2, 3) obtained by changing the recrystallization condition of Example 1 were measured, and the state of dissolution in ethanol was also observed with the naked eye. Crystal 2 and Crystal 3 are the crystals of the present invention, wherein the dissolution state was satisfactory as well.
The alcohol content (content of alcohol used in recrystallization) of compositions obtained by changing the recrystallization condition of Example 1 was measured, and the state of dissolution in ethanol was also observed with the naked eye.

[3] = HPLC measurement of Z and SE isomers produced in the solution after dissolution; type: physicochemical; conditions: in ethanol solution after dissolution of all crystals
Method: (§1) An elution test (stirring condition: 50 rpm) was performed for Raw Material 1 (Crystal of Comparative Example) and Crystal 1 of Example 1 to investigate the elution dynamics. After confirming the dissolution of all crystals, the Z isomer and the SE isomer, which were isomers produced in the solution, were analyzed and quantitatively measured by means of HPLC. In the elution test, 500 mL of anhydrous ethanol was used as the solvent, wherein 1 g of the sample was dissolved at room temperature while stirring, and the time, which was required for the dissolution, was simultaneously measured. Accordingly, it is understood that the time, which is required for the dissolution, is short for Crystal 1, and thus the production of the Z isomer and the SE isomer as the isomers is suppressed in the dissolving step. The condition for HPLC was as follows. Column: CHIRALCEL OD-RH 4.6×150 mm, column temperature: 35° C., mobile phase: mixture solution of methanol/2% aqueous solution of potassium hexafluorophosphate (85:15, v/v), flow rate: 0.6 mL/min., detection: 295 nm).

[4] = Elution test: time required for dissolution in anhydrous ethanol (50 rpm); type: physicochemical; conditions: 1 g sample in 500 mL anhydrous ethanol, room temperature, stirring 50 rpm
Method: as §1, with “step.” for “step. The condition for HPLC was as follows. Column: CHIRALCEL OD-RH 4.6×150 mm, column temperature: 35° C., mobile phase: mixture solution of methanol/2% aqueous solution of potassium hexafluorophosphate (85:15, v/v), flow rate: 0.6 mL/min., detection: 295 nm).”

[5] = system: Trichomonas vaginalis (clinically isolated strain); experiment: Trichomonas vaginalis culture, cell count on hemocytometer; type: cell-based; conditions: 5.08 mg crystal in Trichomonas medium F, culture 4 days at 37° C., start 3.93×10^5 cells/mL
Method: Effects of an active ingredient containing alcohol were examined by utilizing crystal 10. Crystal, which was obtained by performing recrystallization from a mixture solution of ethyl acetate and n-hexane and which contained no alcohol, was used as a comparative example (comparative crystal). Direct effects of luliconazole were investigated by utilizing Trichomonas vaginalis (clinically isolated strain). Samples were prepared such that 5.08 mg of comparative crystal was added in “Trichomonas medium F” (Fuji Pharma), 5.08 mg of crystal 10 was added in the medium, and 5 μL of water was added in the medium (control). […] of culture solution containing 3.93×10^5 cells/mL of Trichomonas vaginalis was added to each of the samples, followed by culturing for 4 days at 37° C. After that, cells of Trichomonas were counted on a hemocytometer. Between these three samples, significant difference was confirmed at a critical value of not more than 1%.

[6] = Tablet hardness measurement (PTB311); type: physicochemical; conditions: tablet 50% lactose / 50% luliconazole, tableting pressure 1 ton/cm^2, 9 mmφ, average of 6 tablets
Method: According to the formulation described in the following Table 6, tablet was prepared, and its hardness was measured. PTB311 (Pharma Test GmbH) was used as a measurement apparatus for hardness. Condition of tableting was performed at tableting pressure of 1 ton/cm^2 by utilizing 9 mmφ of a mortar and mallet. Comparative example was prepared by performing same procedures as described above by using comparative crystal. […] Accordingly, it is assumed that a tablet having high hardness can be obtained by utilizing the active ingredient containing alcohol since the active ingredient containing alcohol has strong affinity between the active ingredients.

SMILES: N#C/C(=C1/SC[C@@H](c2ccc(Cl)cc2Cl)S1)n1ccnc1 [Crystal 7, luliconazole]
Solubility order (state of dissolution in ethanol compared) [1]: Crystal of Comparative Example<<Crystal 5=Crystal 7

SMILES: N#C/C(=C1/SC[C@@H](c2ccc(Cl)cc2Cl)S1)n1ccnc1 [Crystal 6, luliconazole]
Solubility order (state of dissolution in ethanol compared) [1]: Crystal of Comparative Example<<Crystal 4=Crystal 6<Crystal 3

SMILES: N#C/C(=C1/SC[C@@H](c2ccc(Cl)cc2Cl)S1)n1ccnc1 [Crystal 2, luliconazole]
Solubility (state of dissolution in ethanol) [2]: satisfactory | Solubility order (state of dissolution in ethanol compared) [1]: Crystal of Comparative Example<<Crystal 2=Crystal 5

SMILES: N#C/C(=C1/SC[C@@H](c2ccc(Cl)cc2Cl)S1)n1ccnc1 [Crystal 4, luliconazole]
Solubility order (state of dissolution in ethanol compared) [1]: Crystal of Comparative Example<<Crystal 4=Crystal 6<Crystal 3

SMILES: N#C/C(=C1/SC[C@@H](c2ccc(Cl)cc2Cl)S1)n1ccnc1 [Crystal of Comp. Ex., luliconazole, reference compound]
Amount of generation of SE isomer [3]: 0.09% | Amount of generation of Z isomer [3]: 0.13% | Cells of Trichomonas counted, Average ([5]; listed as Comparative crystal): 376000 | Solubility order (state of dissolution in ethanol compared) ([1]; listed as Comparative Example): Comparative Example<<Crystal 4<Crystal 3 | Solubility order (state of dissolution in ethanol compared) ([1]; listed as Crystal of Comparative Example): Crystal of Comparative Example<<Crystal 2=Crystal 5; also recorded: Crystal of Comparative Example<<Crystal 4=Crystal 6<Crystal 3; also recorded: Crystal of Comparative Example<<Crystal 5=Crystal 7 | Hardness ([6]; listed as Comparative crystal): 29.1 ± 3.0 N | Time required until dissolution [4]: 300 min

SMILES: N#C/C(=C1/SC[C@@H](c2ccc(Cl)cc2Cl)S1)n1ccnc1 [Crystal 5, luliconazole]
Solubility order (state of dissolution in ethanol compared) [1]: Crystal of Comparative Example<<Crystal 2=Crystal 5; also recorded: Crystal of Comparative Example<<Crystal 5=Crystal 7

Further lines, with some results ahead:

Amount of generation of SE isomer [3]: 0.06% | Amount of generation of Z isomer [3]: 0.06% | Time required until dissolution [4]: 200 min
SMILES: N#C/C(=C1/SC[C@@H](c2ccc(Cl)cc2Cl)S1)n1ccnc1 [Crystal 1, luliconazole]

Solubility (state of dissolution in ethanol) [2]: satisfactory
SMILES: N#C/C(=C1/SC[C@@H](c2ccc(Cl)cc2Cl)S1)n1ccnc1 [Crystal 3, luliconazole]
Solubility order (state of dissolution in ethanol compared) [1]: Crystal of Comparative Example<<Crystal 4=Crystal 6<Crystal 3

Solubility (state of dissolution in ethanol) [2]: satisfactory | Hardness [6]: 73.7 ± 4.2 N
SMILES: N#C/C(=C1/SC[C@@H](c2ccc(Cl)cc2Cl)S1)n1ccnc1 [Crystal 10, luliconazole]
Cells of Trichomonas counted, Average [5]: 256000
